Assay results reported in PubChem BioAssay (NCI).
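Cultured in 96-well plates, cells were exposed to test compound for 48 hours across five concentrations. GI50 is the concentration that inhibits growth by half. TGI: total growth inhibition.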

How the values were obtained:
Experiment in all cases: NCI anticancer screen, dose series, 48 h
PC-3 prostate = tested on: PC-3 prostate
CAKI-1 renal = tested on: CAKI-1 renal
NCI/ADR-RES ovarian = tested on: NCI/ADR-RES ovarian
NCI-H226 lung = tested on: NCI-H226 lung
NCI-H23 lung = tested on: NCI-H23 lung
OVCAR-8 ovarian = tested on: OVCAR-8 ovarian
SF-295 CNS = tested on: SF-295 CNS
K-562 leukemia = tested on: K-562 leukemia
HS 578T breast = tested on: HS 578T breast
LOX IMVI melanoma = tested on: LOX IMVI melanoma
SK-MEL-5 melanoma = tested on: SK-MEL-5 melanoma
A498 renal = tested on: A498 renal
SN12C renal = tested on: SN12C renal
SNB-75 CNS = tested on: SNB-75 CNS
SK-MEL-28 melanoma = tested on: SK-MEL-28 melanoma
EKVX NSCLC = tested on: EKVX NSCLC
HT29 colon = tested on: HT29 colon
UACC-62 melanoma = tested on: UACC-62 melanoma
OVCAR-4 ovarian = tested on: OVCAR-4 ovarian
HCT-15 colon = tested on: HCT-15 colon
MOLT-4 leukemia = tested on: MOLT-4 leukemia
RPMI-8226 leukemia = tested on: RPMI-8226 leukemia
SNB-19 CNS = tested on: SNB-19 CNS
A549 NSCLC = tested on: A549 NSCLC
MALME-3M melanoma = tested on: MALME-3M melanoma
SF-268 CNS = tested on: SF-268 CNS
DU-145 prostate = tested on: DU-145 prostate
HL-60(TB) leukemia = tested on: HL-60(TB) leukemia
ACHN renal = tested on: ACHN renal
OVCAR-5 ovarian = tested on: OVCAR-5 ovarian
MDA-MB-231 breast = tested on: MDA-MB-231 breast
UACC-257 melanoma = tested on: UACC-257 melanoma
786-0 renal = tested on: 786-0 renal
SR leukemia = tested on: SR leukemia
MCF7 breast = tested on: MCF7 breast
SW-620 colon = tested on: SW-620 colon
NCI-H460 lung = tested on: NCI-H460 lung
COLO 205 colon = tested on: COLO 205 colon
OVCAR-3 ovarian = tested on: OVCAR-3 ovarian
M14 melanoma = tested on: M14 melanoma
T-47D breast = tested on: T-47D breast
KM12 colon = tested on: KM12 colon
SK-OV-3 ovarian = tested on: SK-OV-3 ovarian
U251 CNS = tested on: U251 CNS
IGROV1 ovarian = tested on: IGROV1 ovarian
TK-10 renal = tested on: TK-10 renal
NCI-H522 lung = tested on: NCI-H522 lung
MDA-MB-435 = tested on: MDA-MB-435
HOP-62 NSCLC = tested on: HOP-62 NSCLC
SK-MEL-2 melanoma = tested on: SK-MEL-2 melanoma
HCT-116 colon = tested on: HCT-116 colon
HCC-2998 colon = tested on: HCC-2998 colon
SF-539 CNS = tested on: SF-539 CNS
UO-31 renal = tested on: UO-31 renal
HOP-92 NSCLC = tested on: HOP-92 NSCLC
RXF 393 renal = tested on: RXF 393 renal
CCRF-CEM leukemia = tested on: CCRF-CEM leukemia
BT-549 breast = tested on: BT-549 breast

Compound `COc1ccc(/C=C2\N=C(c3ccccc3)N(c3cc(C(F)(F)F)ccc3Cl)C2=O)cc1OC` has a GI50 (PC-3 prostate) of 31.4 µM, a TGI (PC-3 prostate) greater than 100 µM and a GI50 (CAKI-1 renal) greater than 100 µM. For the same compound, the TGI (CAKI-1 renal) was greater than 100 µM, the GI50 (NCI/ADR-RES ovarian) was 55.6 µM and the TGI (NCI/ADR-RES ovarian) was greater than 100 µM. For the same compound, the GI50 (NCI-H226 lung) was 56.6 µM, the TGI (NCI-H226 lung) was greater than 100 µM and the GI50 (NCI-H23 lung) was 90.6 µM. For the same compound, the TGI (NCI-H23 lung) was greater than 100 µM, the GI50 (OVCAR-8 ovarian) was 50.8 µM and the TGI (OVCAR-8 ovarian) was greater than 100 µM. It also gave a GI50 (SF-295 CNS) of 95 µM, a TGI (SF-295 CNS) greater than 100 µM and a GI50 (K-562 leukemia) of 31.2 µM. The TGI (K-562 leukemia) was 87.6 µM, the GI50 (HS 578T breast) was 24.4 µM and the TGI (HS 578T breast) was 78.4 µM. For the same compound, the GI50 (LOX IMVI melanoma) was 23.8 µM, the TGI (LOX IMVI melanoma) was 51.6 µM and the GI50 (SK-MEL-5 melanoma) was 25 µM. It also gave a TGI (SK-MEL-5 melanoma) of 54.9 µM, a GI50 (A498 renal) greater than 100 µM and a TGI (A498 renal) greater than 100 µM. It also gave a GI50 (SN12C renal) of 65.7 µM, a TGI (SN12C renal) greater than 100 µM and a GI50 (SNB-75 CNS) of 56.7 µM. For the same compound, the TGI (SNB-75 CNS) was greater than 100 µM, the GI50 (SK-MEL-28 melanoma) was 46.9 µM and the TGI (SK-MEL-28 melanoma) was greater than 100 µM. It also gave a GI50 (EKVX NSCLC) greater than 100 µM, a TGI (EKVX NSCLC) greater than 100 µM and a GI50 (HT29 colon) of 26.9 µM. For the same compound, the TGI (HT29 colon) was 63.1 µM, the GI50 (UACC-62 melanoma) was 64.3 µM and the TGI (UACC-62 melanoma) was greater than 100 µM. It also gave a GI50 (OVCAR-4 ovarian) of 39.2 µM, a TGI (OVCAR-4 ovarian) greater than 100 µM and a GI50 (HCT-15 colon) of 40.7 µM. It also gave a TGI (HCT-15 colon) greater than 100 µM, a GI50 (MOLT-4 leukemia) of 29 µM and a TGI (MOLT-4 leukemia) of 71.7 µM. The GI50 (RPMI-8226 leukemia) was 25.8 µM, the TGI (RPMI-8226 leukemia) was 80.8 µM and the GI50 (SNB-19 CNS) was 46.4 µM. The TGI (SNB-19 CNS) was greater than 100 µM, the GI50 (A549 NSCLC) was 82 µM and the TGI (A549 NSCLC) was greater than 100 µM. For the same compound, the GI50 (MALME-3M melanoma) was 79.7 µM, the TGI (MALME-3M melanoma) was greater than 100 µM and the GI50 (SF-268 CNS) was 31.8 µM. The TGI (SF-268 CNS) was greater than 100 µM, the GI50 (DU-145 prostate) was 43.1 µM and the TGI (DU-145 prostate) was greater than 100 µM. For the same compound, the GI50 (HL-60(TB) leukemia) was 17.6 µM, the TGI (HL-60(TB) leukemia) was 47.3 µM and the GI50 (ACHN renal) was 58.1 µM. For the same compound, the TGI (ACHN renal) was greater than 100 µM, the GI50 (OVCAR-5 ovarian) was greater than 100 µM and the TGI (OVCAR-5 ovarian) was greater than 100 µM. The GI50 (MDA-MB-231 breast) was 87 µM, the TGI (MDA-MB-231 breast) was greater than 100 µM and the GI50 (UACC-257 melanoma) was greater than 100 µM. The TGI (UACC-257 melanoma) was greater than 100 µM, the GI50 (786-0 renal) was 13.8 µM and the TGI (786-0 renal) was 37.3 µM. The TGI (SR leukemia) was 0.0635 µM, the GI50 (MCF7 breast) was 35.4 µM and the TGI (MCF7 breast) was greater than 100 µM. The GI50 (SW-620 colon) was 20.5 µM, the TGI (SW-620 colon) was 46.2 µM and the GI50 (NCI-H460 lung) was 43 µM. It also gave a TGI (NCI-H460 lung) greater than 100 µM, a GI50 (COLO 205 colon) of 74 µM and a TGI (COLO 205 colon) greater than 100 µM. It also gave a GI50 (OVCAR-3 ovarian) of 37.9 µM, a TGI (OVCAR-3 ovarian) greater than 100 µM and a GI50 (M14 melanoma) of 28.5 µM. The TGI (M14 melanoma) was 65.8 µM, the GI50 (T-47D breast) was greater than 100 µM and the TGI (T-47D breast) was greater than 100 µM. The GI50 (KM12 colon) was 39 µM, the TGI (KM12 colon) was greater than 100 µM and the GI50 (SK-OV-3 ovarian) was greater than 100 µM. It also gave a TGI (SK-OV-3 ovarian) greater than 100 µM, a GI50 (U251 CNS) of 39 µM and a TGI (U251 CNS) greater than 100 µM. The GI50 (IGROV1 ovarian) was 28.4 µM, the TGI (IGROV1 ovarian) was greater than 100 µM and the GI50 (TK-10 renal) was 93.6 µM. For the same compound, the TGI (TK-10 renal) was greater than 100 µM, the GI50 (NCI-H522 lung) was 31.8 µM and the TGI (NCI-H522 lung) was greater than 100 µM. The GI50 (MDA-MB-435) was 40.6 µM, the TGI (MDA-MB-435) was greater than 100 µM and the GI50 (HOP-62 NSCLC) was 21.1 µM. For the same compound, the TGI (HOP-62 NSCLC) was 51 µM, the GI50 (SK-MEL-2 melanoma) was 31.9 µM and the TGI (SK-MEL-2 melanoma) was 82.1 µM. The GI50 (HCT-116 colon) was 21.4 µM, the TGI (HCT-116 colon) was 41.4 µM and the GI50 (HCC-2998 colon) was 65 µM. For the same compound, the TGI (HCC-2998 colon) was greater than 100 µM, the GI50 (SF-539 CNS) was 24.2 µM and the TGI (SF-539 CNS) was 57 µM. It also gave a GI50 (UO-31 renal) of 48.4 µM, a TGI (UO-31 renal) greater than 100 µM and a GI50 (HOP-92 NSCLC) of 83.9 µM. For the same compound, the TGI (HOP-92 NSCLC) was greater than 100 µM, the GI50 (RXF 393 renal) was 33.5 µM and the TGI (RXF 393 renal) was 68.3 µM.

`CC(=O)O[C@H]1C(=O)[C@@]2(C)[C@H]([C@H](OC(=O)c3ccccc3)[C@]3(O)C[C@H](OC(=O)[C@H](O)[C@@H](NC(=O)c4ccccc4)C4CCCCC4)C(C)=C1C3(C)C)[C@]1(OC(C)=O)CO[C@@H]1C[C@@H]2O` gave a TGI (PC-3 prostate) of 2.91 µM, a TGI (CAKI-1 renal) greater than 100 µM and a TGI (NCI/ADR-RES ovarian) of 11.4 µM. The TGI (NCI-H226 lung) was greater than 100 µM, the TGI (NCI-H23 lung) was greater than 100 µM and the TGI (OVCAR-8 ovarian) was 98.8 µM. The TGI (SF-295 CNS) was 0.0606 µM, the TGI (K-562 leukemia) was greater than 51.9 µM and the TGI (HS 578T breast) was less than 0.01 µM. For the same compound, the TGI (LOX IMVI melanoma) was greater than 56.4 µM, the TGI (SK-MEL-5 melanoma) was 14.9 µM and the TGI (SK-MEL-28 melanoma) was greater than 100 µM. It also gave a TGI (EKVX NSCLC) greater than 100 µM, a TGI (HT29 colon) of 17.5 µM and a TGI (UACC-62 melanoma) of 52.2 µM. For the same compound, the TGI (CCRF-CEM leukemia) was greater than 62.7 µM, the TGI (OVCAR-4 ovarian) was 50.5 µM and the TGI (HCT-15 colon) was greater than 51.1 µM. The TGI (MOLT-4 leukemia) was greater than 51.6 µM, the TGI (RPMI-8226 leukemia) was 19.2 µM and the TGI (SNB-19 CNS) was greater than 100 µM. For the same compound, the TGI (A549 NSCLC) was greater than 100 µM, the TGI (MALME-3M melanoma) was 95 µM and the TGI (SF-268 CNS) was greater than 100 µM. It also gave a TGI (BT-549 breast) greater than 100 µM, a TGI (HL-60(TB) leukemia) of less than 0.01 µM and a TGI (ACHN renal) greater than 72.8 µM. It also gave a TGI (OVCAR-5 ovarian) of 0.673 µM, a TGI (MDA-MB-231 breast) of 28.6 µM and a TGI (786-0 renal) greater than 100 µM. The TGI (SR leukemia) was 25.1 µM, the TGI (MCF7 breast) was 25.9 µM and the TGI (SW-620 colon) was greater than 100 µM. It also gave a TGI (NCI-H460 lung) of 15.3 µM, a TGI (COLO 205 colon) of less than 0.01 µM and a TGI (OVCAR-3 ovarian) of less than 0.01 µM. The TGI (M14 melanoma) was 24 µM, the TGI (T-47D breast) was 93.7 µM and the TGI (KM12 colon) was 37.1 µM. It also gave a TGI (U251 CNS) greater than 43 µM, a TGI (IGROV1 ovarian) greater than 61.3 µM and a TGI (TK-10 renal) of 37.4 µM. The TGI (NCI-H522 lung) was 0.011 µM, the TGI (HOP-62 NSCLC) was 1.45 µM and the TGI (SK-MEL-2 melanoma) was greater than 100 µM. It also gave a TGI (HCT-116 colon) greater than 44.9 µM, a TGI (HCC-2998 colon) of 16.4 µM and a TGI (SF-539 CNS) of 0.0214 µM. For the same compound, the TGI (UO-31 renal) was 36.2 µM, the TGI (HOP-92 NSCLC) was 64.1 µM and the TGI (RXF 393 renal) was 0.013 µM.
